Patent US10765114B2, “4-amino-6-(pyridyl and 2-substitutedphenyl)-picolinates and 6-amino-2-(pyridyl and 2-substitutedphenyl)-pyrimidine-4-carboxylates and their use as herbicides” (Dow AgroSciences LLC, priority 2013, dated 2020)
Where two headings read alike, the source gives them in different places.

What was measured:
[1] = tested on: Key Broadleaf Weed and Crop Species; experiment: Post-Emergent Test II (Table 5); type: in vivo; conditions: post-emergence, 336 h; for pest or weed control at 70 g/ha: application rate 70 (kg ai/ha; footnote: g ai/ha); for pest or weed control at 140 g/ha: application rate 140 (kg ai/ha; footnote: g ai/ha)
How it was run: (§1)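 Post-emergence greenhouse spray, 1st-2nd true leaf stage; track sprayer, 187 L/ha; acetone/DMSO stock diluted in aqueous acetone/IPA/DMSO with Atplus 411F and Triton X-155; rates 1× to 1/16×; subirrigated; visual injury 0 (none) to 100% (complete kill) at 14 days.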

[2] = tested on: Key Grass and Sedge Weeds as well as Grass Crops; experiment: Post-Emergent Test II (Table 6); type: in vivo; conditions: post-emergence, 336 h, 14 days after application; for pest or weed control at 70 g/ha: 70 g ai/ha; for pest or weed control at 140 g/ha: 140 g ai/ha
How it was run: as §1

[3] = Abutilon theophrasti, ABUTH: velvetleaf (Abutilon theophrasti), read-out: Visual Growth Reduction (%) 14 Days After Application ABUTH
[4] = Amaranthus retroflexus, AMARE: redroot pigweed (Amaranthus retroflexus), read-out: Visual Growth Reduction (%) 14 Days After Application AMARE
[5] = Brassica napus, BRSSS: oilseed rape, canola (Brassica napus), read-out: Visual Growth Reduction (%) 14 Days After Application BRSSS
[6] = Chenopodium album, CHEAL: lambsquarters (Chenopodium album), read-out: Visual Growth Reduction (%) 14 Days After Application CHEAL
[7] = Euphorbia heterophylla, EPHHL: wild poinsettia (Euphorbia heterophylla), read-out: Visual Growth Reduction (%) 14 Days After Application EPHHL
[8] = Helianthus annuus, HELAN: sunflower (Helianthus annuus), read-out: Visual Growth Reduction (%) 14 Days After Application HELAN
[9] = Viola tricolor, VIOTR: wild pansy (Viola tricolor), read-out: Visual Growth Reduction (%) 14 Days After Application VIOTR
[10] = CYPSS, read-out: Visual Growth Reduction (%) 14 Days After Application CYPSS
[11] = DIGSA: crabgrass (Digitaria sanguinalis), read-out: Visual Growth Reduction (%) 14 Days After Application DIGSA
[12] = ORYSS (crop), read-out: Visual Growth Reduction (%) 14 Days After Application ORYSS
[13] = SETFA: giant foxtail (Setaria faberi), read-out: Visual Growth Reduction (%) 14 Days After Application SETFA
[14] = SORVU: grain sorghum (Sorghum vulgare), read-out: Visual Growth Reduction (%) 14 Days After Application SORVU
[15] = TRZSS (crop), read-out: Visual Growth Reduction (%) 14 Days After Application TRZSS
[16] = ZEAMX: maize, corn (Zea mays), read-out: Visual Growth Reduction (%) 14 Days After Application ZEAMX

Question: What does the source list for `COC(=O)c1nc(-c2ccc(Cl)c(F)c2C)c(Cl)c(N)c1Cl` [Compound 3]?
Answer: pest or weed control at 70 g/ha [1, 3]: 60 to 74%; pest or weed control at 140 g/ha [1, 3]: 60 to 74%; pest or weed control at 70 g/ha [1, 4]: 95 to 100%; pest or weed control at 140 g/ha [1, 4]: 95 to 100%; pest or weed control at 70 g/ha [1, 5]: 0 to 29%; pest or weed control at 140 g/ha [1, 5]: 0 to 29%; pest or weed control at 70 g/ha [1, 6]: 60 to 74%; pest or weed control at 140 g/ha [1, 6]: 75 to 84%; pest or weed control at 70 g/ha [1, 7]: 0 to 29%; pest or weed control at 140 g/ha [1, 7]: 0 to 29%; pest or weed control at 70 g/ha [1, 8]: 75 to 84%; pest or weed control at 140 g/ha [1, 8]: 75 to 84%; pest or weed control at 70 g/ha [1, 9]: 0 to 29%; pest or weed control at 140 g/ha [1, 9]: 0 to 29%; pest or weed control at 70 g/ha [2, 10]: 0 to 29%; pest or weed control at 140 g/ha [2, 10]: 0 to 29%; pest or weed control at 70 g/ha [2, 11]: 0 to 29%; pest or weed control at 140 g/ha [2, 11]: 0 to 29%; pest or weed control at 70 g/ha [2, 12]: 0 to 29%; pest or weed control at 140 g/ha [2, 12]: 0 to 29%; pest or weed control at 70 g/ha [2, 13]: 0 to 29%; pest or weed control at 140 g/ha [2, 13]: 0 to 29%; pest or weed control at 70 g/ha [2, 14]: 0 to 29%; pest or weed control at 140 g/ha [2, 14]: 0 to 29%; pest or weed control at 70 g/ha [2, 15]: 0 to 29%; pest or weed control at 140 g/ha [2, 15]: 0 to 29%; pest or weed control at 70 g/ha [2, 16]: 0 to 29%; pest or weed control at 140 g/ha [2, 16]: 0 to 29%; melting point: 122 to 136 °C

Question: With `COC(=O)c1nc(-c2ccc(Cl)c(F)c2Cl)cc(N)c1Cl` [Compound 72] as the molecule, how does the pest or weed control at 70 g/ha [1, 3] read?
Answer: The pest or weed control at 70 g/ha was 95 to 100%.

Question: What about the pest or weed control at 140 g/ha [1, 3] of the same molecule?
Answer: The pest or weed control at 140 g/ha was 95 to 100%.

Question: What about the pest or weed control at 70 g/ha [1, 4] of the same molecule?
Answer: Its pest or weed control at 70 g/ha is 95 to 100%.

Question: What about the pest or weed control at 140 g/ha [1, 4] of the same molecule?
Answer: Its pest or weed control at 140 g/ha is 95 to 100%.

Question: And the pest or weed control at 70 g/ha [1, 5]?
Answer: The pest or weed control at 70 g/ha was 85 to 94%.

Question: What about the pest or weed control at 140 g/ha [1, 5] of the same molecule?
Answer: Its pest or weed control at 140 g/ha is 95 to 100%.

Question: What about the pest or weed control at 70 g/ha [1, 6] of the same molecule?
Answer: The pest or weed control at 70 g/ha was 95 to 100%.

Question: What about the pest or weed control at 140 g/ha [1, 6] of the same molecule?
Answer: Its pest or weed control at 140 g/ha is 95 to 100%.

Question: What about the pest or weed control at 70 g/ha [1, 7] of the same molecule?
Answer: Its pest or weed control at 70 g/ha is 85 to 94%.

Question: And the pest or weed control at 140 g/ha [1, 7]?
Answer: The pest or weed control at 140 g/ha was 85 to 94%.

Question: And the pest or weed control at 70 g/ha [1, 8]?
Answer: Its pest or weed control at 70 g/ha is 75 to 84%.

Question: What about the pest or weed control at 140 g/ha [1, 8] of the same molecule?
Answer: The pest or weed control at 140 g/ha was 85 to 94%.

Question: What about the pest or weed control at 70 g/ha [1, 9] of the same molecule?
Answer: The pest or weed control at 70 g/ha was 95 to 100%.

Question: What about the pest or weed control at 140 g/ha [1, 9] of the same molecule?
Answer: Its pest or weed control at 140 g/ha is 95 to 100%.

Question: And the pest or weed control at 70 g/ha [2, 10]?
Answer: Its pest or weed control at 70 g/ha is 95 to 100%.

Question: And the pest or weed control at 140 g/ha [2, 10]?
Answer: Its pest or weed control at 140 g/ha is 95 to 100%.

Question: And the pest or weed control at 70 g/ha [2, 11]?
Answer: The pest or weed control at 70 g/ha was 75 to 84%.

Question: And the pest or weed control at 140 g/ha [2, 11]?
Answer: Its pest or weed control at 140 g/ha is 75 to 84%.

Question: And the pest or weed control at 70 g/ha [2, 12]?
Answer: Its pest or weed control at 70 g/ha is 0 to 29%.

Question: And the pest or weed control at 140 g/ha [2, 12]?
Answer: The pest or weed control at 140 g/ha was 0 to 29%.

Question: What about the pest or weed control at 70 g/ha [2, 13] of the same molecule?
Answer: The pest or weed control at 70 g/ha was 75 to 84%.

Question: And the pest or weed control at 140 g/ha [2, 13]?
Answer: The pest or weed control at 140 g/ha was 75 to 84%.

Question: What about the pest or weed control at 70 g/ha [2, 14] of the same molecule?
Answer: The pest or weed control at 70 g/ha was 60 to 74%.

Question: What about the pest or weed control at 140 g/ha [2, 14] of the same molecule?
Answer: The pest or weed control at 140 g/ha was 95 to 100%.

Question: And the pest or weed control at 70 g/ha [2, 15]?
Answer: Its pest or weed control at 70 g/ha is 45 to 59%.

Question: And the pest or weed control at 140 g/ha [2, 15]?
Answer: Its pest or weed control at 140 g/ha is 45 to 59%.

Question: And the pest or weed control at 70 g/ha [2, 16]?
Answer: Its pest or weed control at 70 g/ha is 60 to 74%.

Question: And the pest or weed control at 140 g/ha [2, 16]?
Answer: Its pest or weed control at 140 g/ha is 75 to 84%.

Question: What about the melting point of the same molecule?
Answer: Its melting point is 183 to 189 °C.
